In patent US20200256869A1, “SYSTEMS AND METHODS FOR THE ASSESSMENT OF G-PROTEIN ACTIVATION” (UNIVERSITÉ DE MONTRÉAL, priority 2017, published 2020):
pEC50: −log10 of the molar value.

What was measured:
Type in all cases: cell-based
D3R = target: T1, D3R (Homo sapiens, UniProt P35462); test: Gz activation by D3R, Rap1GAP (SSS-AAA)-RlucII translocation to PM (BRET)
T1 construct: expressed in transfected cells; host or cells: HEK293
Experimental: (§1) Cells were then directly seeded in 96-well plates pre-treated or not with poly-L-ornithine hydrobromide at a density of 35 000 cells per well. All experiments read in the Spark 10M reader were performed using non-treated plates.
(§2) BRET measurements 48-hours post transfection, cells were washed twice with pre-warmed Tyrode's buffer (140 mM NaCl, 2.7 mM KCl, 1 mM CaCl2, 12 mM NaHCO3, 5.6 mM D-glucose, 0.5 mM MgCl2, 0.37 mM NaH2PO4, 25 mM HEPES, pH 7.4) before being stimulated with various concentrations of ligands at either room temperature (RT) or 37° C., as indicated. The cell-permeable substrate, coelenterazine Purple I was added at a final concentration of 1 μM in Tyrode's buffer for at least 6 min (at 37° C.) to 10min (at RT) before BRET measurements.
(§3) Data Analysis. Estimation of the EC50 values were calculated using the GraphPad® Prism curve fitting program. The curves presented throughout this study, representing the best fits, and were also generated using this GraphPad® Prism program.

[1] = target: T2, Dopamine D4 receptor (D4R) (Homo sapiens, UniProt P21917); settings: HEK293, Rap1GAP (SSS-AAA)-RlucII, rGFP-CAAX, Gz, read-out: EC50, Gz activation
T2 construct: signal peptide […]; host or cells: HEK293
T2 sequence (P21917 1-419): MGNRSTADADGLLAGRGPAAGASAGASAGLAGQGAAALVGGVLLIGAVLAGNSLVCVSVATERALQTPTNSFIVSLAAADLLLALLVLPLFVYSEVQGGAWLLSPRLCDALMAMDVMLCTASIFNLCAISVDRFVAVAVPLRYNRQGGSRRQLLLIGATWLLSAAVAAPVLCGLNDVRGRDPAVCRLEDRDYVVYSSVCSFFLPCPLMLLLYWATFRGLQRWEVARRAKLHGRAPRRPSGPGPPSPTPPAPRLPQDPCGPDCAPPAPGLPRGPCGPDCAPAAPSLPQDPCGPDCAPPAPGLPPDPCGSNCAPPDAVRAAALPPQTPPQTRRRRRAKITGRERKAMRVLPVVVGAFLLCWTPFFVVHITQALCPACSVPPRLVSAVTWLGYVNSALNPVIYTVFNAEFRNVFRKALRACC
Experimental: as §1, §2, §3

[2] = target: T3, thromboxane receptor (TPαR) (Homo sapiens, UniProt P21731); test: TPαR-mediated G11 activation at the PM, P63RG-RlucII BRET
T3 construct: host or cells: HEK293
T3 sequence (P21731 1-343): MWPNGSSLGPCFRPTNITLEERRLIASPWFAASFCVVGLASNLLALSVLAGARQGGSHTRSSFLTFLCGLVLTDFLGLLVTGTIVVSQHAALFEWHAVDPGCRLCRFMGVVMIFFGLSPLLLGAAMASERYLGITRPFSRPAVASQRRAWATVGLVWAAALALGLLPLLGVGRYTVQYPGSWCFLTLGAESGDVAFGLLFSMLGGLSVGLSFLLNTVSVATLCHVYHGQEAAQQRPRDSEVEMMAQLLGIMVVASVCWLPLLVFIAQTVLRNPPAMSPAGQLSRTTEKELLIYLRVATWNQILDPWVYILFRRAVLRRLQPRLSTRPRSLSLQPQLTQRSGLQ
Description: (§4) FIGS. 6J-6M show DRCs of TPαR ligands on Gq (FIG. 6J), G11 (FIG. 6K), G14 (FIG. 6L) and G15 (FIG. 6M) activation at the PM using P63RG-Rlucll under the optimal conditions determined in FIGS. 6B-6E. HEK293 cells cotransfected with thromboxane receptor (TPαR), P63RG-Rlucll, rGFP-CAAX were stimulated with U46619, I-BOP, CTA2, U51605, I-SAP and SQ 29,558. Results were normalized and presented as % of I-BOP response (between n=3 and n=5) +/−SEM.
(§5) Transfection using Poly(ethylenimine) (PEI): Two days before the experiments, HEK293 cells were washed with PBS containing no calcium or magnesium, detached and transfected with the indicated plasmids using PEI as a transfecting agent (at a ratio of 3 to 1, PEI/DNA). Cells were then directly seeded in 96-well plates pre-treated or not with poly-L-ornithine hydrobromide at a density of 35 000 cells per well. All experiments read in the Spark 10M reader were performed using non-treated plates.
(§6) BRET measurements 48-hours post transfection, cells were washed twice with pre-warmed Tyrode's buffer (140 mM NaCl, 2.7 mM KCl, 1 mM CaCl2, 12 mM NaHCO3, 5.6 mM D-glucose, 0.5 mM MgCl2, 0.37 mM NaH2PO4, 25 mM HEPES, pH 7.4) before being stimulated with various concentrations of ligands at either room temperature (RT) or 37° C., as indicated. The cell-permeable substrate, coelenterazine Purple I was added at a final concentration of 1 μM in Tyrode's buffer for at least 6 min (at 37° C.) to 10min (at RT) before BRET measurements. Measurements were either taken on a Spark 10M reader (Tecan Life Sciences; donor: 360 nm/380 nm & acceptor: 505 nm/570 nm), a LB 941 multimode plate reader (Berthold Technologies; donor: 400/470-nm and acceptor: 515/520-nm filters) or a Synergy Neo (Biotek: (donor: 400/480 nm, acceptor: 515/530 nm). The BRET signal was determined by calculating the ratio of the light intensity emitted by the rGFP (acceptor) over the light intensity emitted by the Rlucll (donor). All the BRET measurements were performed at 37° C. in the Tristar reader (FIGS. 1-2M & FIGS. 2R-7F), at RT in a Spark 10M reader (FIGS. 2N-2Q & FIGS. 8B-8S) or at RT in a Synergy Neo (FIGS. 8T-8X).

[3] = target: T3, thromboxane receptor (TPαR); test: TPαR-mediated G15 activation at the PM, P63RG-RlucII BRET
Description: as §4, §5, §6

[4] = target: T3, thromboxane receptor (TPαR); test: TPαR-mediated Gq activation at the PM, P63RG-RlucII BRET
Description: as §4, §5, §6

[5] = target: T3, thromboxane receptor (TPαR); test: TPαR-mediated G13 activation at the PM, P115RG-RlucII BRET
Description: (§7) FIGS. 5B and 5C show DRCs of TPαR ligands on G12 (FIG. 5B) and G13 (FIG. 5C) activation at the PM using P115RG-Rlucll. HEK293 cells cotransfected with thromboxane receptor (TPαR), P115RG-Rlucll, rGFP-CAAX were stimulated with U46619, I-BOP, CTA2, U51605, I-SAP and SQ 29,558. Results were normalized and presented as % of I-BOP response (n=4) +/−SEM.
as §5, §6

[6] = target: T3, thromboxane receptor (TPαR); test: TPαR-mediated G12 activation at the PM, PDZRG-RlucII BRET
Description: (§8) FIGS. 4D and 4E show DRCs of TPαR ligands on G12 (FIG. 4D) and 13 (FIG. 4E) activation at the PM using PDZRG-Rlucll. HEK293 cells cotransfected with thromboxane receptor (TPαR), PDZRG-Rlucll, rGFP-CAAX were stimulated with known full agonists (U46619, I-BOP, CTA2), with a partial agonist (U51605) and the antagonists I-SAP and SQ 29,558. Results were normalized and presented as % of I-BOP response (n=4) +/−SEM.
as §5, §6

[7] = target: T3, thromboxane receptor (TPαR); test: TPαR-mediated G12 activation at the PM, P115RG-RlucII BRET
Description: as §7, §5, §6

[8] = target: T3, thromboxane receptor (TPαR); test: TPαR-mediated G13 activation at the PM, PDZRG-RlucII BRET
Description: as §8, §5, §6

[9] = target: T3, thromboxane receptor (TPαR); test: TPαR-mediated G14 activation at the PM, P63RG-RlucII BRET
Description: as §4, §5, §6

D1R = target: T4, D1R (Homo sapiens, UniProt P21728); test: Gz activation by D1R, Rap1GAP (SSS-AAA)-RlucII translocation to PM (BRET)
T4 construct: expressed in transfected cells; host or cells: HEK293
Experimental: as §1, §2, §3

D5R = target: T5, D5R (Homo sapiens, UniProt P21918); test: Gz activation by D5R, Rap1GAP (SSS-AAA)-RlucII translocation to PM (BRET)
T5 construct: expressed in transfected cells; host or cells: HEK293
Experimental: as §1, §2, §3

D2R = target: T6, D2R (Homo sapiens, UniProt P14416); test: Gz activation by D2R, Rap1GAP (SSS-AAA)-RlucII translocation to PM (BRET)
T6 construct: expressed in transfected cells; host or cells: HEK293
Experimental: as §1, §2, §3

T1 sequence (P35462 whole entry): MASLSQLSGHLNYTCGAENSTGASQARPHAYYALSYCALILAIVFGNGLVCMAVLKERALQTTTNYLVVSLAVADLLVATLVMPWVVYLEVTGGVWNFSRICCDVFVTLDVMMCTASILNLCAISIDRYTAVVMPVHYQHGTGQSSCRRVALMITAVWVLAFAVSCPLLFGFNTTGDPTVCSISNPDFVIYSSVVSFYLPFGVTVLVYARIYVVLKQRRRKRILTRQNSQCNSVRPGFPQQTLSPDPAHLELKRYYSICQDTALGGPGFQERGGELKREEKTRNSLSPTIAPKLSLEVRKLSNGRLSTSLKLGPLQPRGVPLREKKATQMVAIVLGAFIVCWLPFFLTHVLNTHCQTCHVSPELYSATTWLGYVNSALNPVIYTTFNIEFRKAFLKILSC
T4 sequence (P21728 whole entry): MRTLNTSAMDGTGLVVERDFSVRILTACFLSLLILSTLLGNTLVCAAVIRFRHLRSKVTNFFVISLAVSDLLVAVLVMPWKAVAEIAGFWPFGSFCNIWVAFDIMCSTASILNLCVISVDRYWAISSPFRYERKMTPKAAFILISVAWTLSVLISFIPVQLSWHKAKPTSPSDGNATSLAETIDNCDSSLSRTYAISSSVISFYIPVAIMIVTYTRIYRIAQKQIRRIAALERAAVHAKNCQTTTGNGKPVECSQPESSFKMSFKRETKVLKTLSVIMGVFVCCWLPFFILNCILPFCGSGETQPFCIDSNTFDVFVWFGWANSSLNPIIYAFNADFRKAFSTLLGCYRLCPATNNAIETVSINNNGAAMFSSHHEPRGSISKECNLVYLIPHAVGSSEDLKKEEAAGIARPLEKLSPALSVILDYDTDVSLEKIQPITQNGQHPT
T5 sequence (P21918 whole entry): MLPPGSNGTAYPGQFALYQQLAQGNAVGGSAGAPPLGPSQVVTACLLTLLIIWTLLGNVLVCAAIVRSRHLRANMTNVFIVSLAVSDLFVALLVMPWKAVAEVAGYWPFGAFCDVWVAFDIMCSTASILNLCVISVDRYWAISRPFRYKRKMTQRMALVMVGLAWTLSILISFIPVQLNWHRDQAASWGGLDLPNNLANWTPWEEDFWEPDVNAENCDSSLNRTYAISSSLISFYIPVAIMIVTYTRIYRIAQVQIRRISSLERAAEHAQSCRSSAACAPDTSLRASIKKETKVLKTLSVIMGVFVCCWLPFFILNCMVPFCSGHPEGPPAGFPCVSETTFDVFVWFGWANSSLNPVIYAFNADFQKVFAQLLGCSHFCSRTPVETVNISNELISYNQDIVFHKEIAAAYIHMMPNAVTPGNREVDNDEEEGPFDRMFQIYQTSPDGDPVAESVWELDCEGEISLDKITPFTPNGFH
T6 sequence (P14416 whole entry): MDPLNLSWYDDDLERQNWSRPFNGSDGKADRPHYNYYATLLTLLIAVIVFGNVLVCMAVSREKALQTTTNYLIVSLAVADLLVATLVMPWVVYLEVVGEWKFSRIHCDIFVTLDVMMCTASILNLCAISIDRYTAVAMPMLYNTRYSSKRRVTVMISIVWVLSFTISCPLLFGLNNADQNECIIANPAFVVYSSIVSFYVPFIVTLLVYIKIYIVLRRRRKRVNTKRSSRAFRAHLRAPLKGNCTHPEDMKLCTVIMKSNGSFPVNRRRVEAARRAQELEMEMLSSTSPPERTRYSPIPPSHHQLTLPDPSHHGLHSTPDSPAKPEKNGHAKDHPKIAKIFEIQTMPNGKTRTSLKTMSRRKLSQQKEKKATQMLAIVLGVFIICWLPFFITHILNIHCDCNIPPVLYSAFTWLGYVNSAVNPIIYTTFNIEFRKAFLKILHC

| G11 activation, agonist character in words [2] | G15 activation, agonist character in words [3] | Gq activation, agonist character in words [4] | G13 activation, agonist character in words [5] | G12 activation, agonist character in words [6] | G12 activation, agonist character in words [7] | G13 activation, agonist character in words [8] | G14 activation, agonist character in words [9] | Gq activation, efficacy ([4]; rGFP-CAAX) | G13 activation, efficacy ([5]; normalized to I-BOP response) | G13 activation, efficacy ([8]; normalized to I-BOP response) | agonist properties (Gz activation), in words (D2R) | agonist properties (Gz activation), in words (D3R) | Compound | pEC50 (D3R; HEK293, Rap1GAP (SSS-AAA)-RlucII, rGFP-CAAX, Gz) | pEC50 [1] | agonist properties (Gz activation), in words (D1R) | agonist properties (Gz activation), in words (D5R) |
| --- | --- | --- | --- | --- | --- | --- | --- | --- | --- | --- | --- | --- | --- | --- | --- | --- | --- |
| – | – | – | – | – | – | – | – | – | – | – | – | – | Cc1cccc(NC(=O)CN2CCC(c3ccccn3)CC2)c1 [A412,997] | 6.55 | 10.40 | – | – |
| full agonists | full agonists | full agonists | full agonists | full agonists | full agonists | full agonists | full agonists | – | – | – | – | – | O=C(O)CCC/C=C\C[C@@H]1[C@@H](/C=C/[C@@H](O)COc2ccc(I)cc2)[C@H]2CC[C@@H]1O2 [I-BOP] | – | – | – | – |
| – | – | – | – | – | – | – | – | – | – | – | – | – | Cc1c(C2CCN(CCc3ccccc3)CC2)noc1-c1ccc(Cl)cc1 [L741,742] | – | – | did not show agonist nor inverse properties | did not show agonist nor inverse properties |
| fail to induce significant activation | fail to induce significant activation | fail to induce significant activation | not acting as a TPαR agonist | not acting as a TPαR agonist | not acting as a TPαR agonist | not acting as a TPαR agonist | fail to induce significant activation | – | – | – | – | – | O=C(O)CCC/C=C\C[C@@H]1[C@H](CNNC(=O)Nc2ccccc2)[C@H]2CC[C@@H]1O2 [SQ 29,558] | – | – | – | – |
| full agonists | full agonists | full agonists | full agonists | full agonists | full agonists | full agonists | full agonists | – | – | – | – | – | CCCCC[C@H](O)/C=C/[C@@H]1[C@@H](C/C=C\CCCC(=O)O)[C@H]2CO[C@@H]1C2 [U46619] | – | – | – | – |
| – | – | – | – | – | – | – | – | – | – | – | only showed agonist properties on D4R | only showed agonist properties on D4R | COc1ccccc1N1CCN(CCN(C(=O)C2CCCCC2)c2ccccn2)CC1 [WAY-100635] | – | – | only showed agonist properties on D4R | only showed agonist properties on D4R |

| Compound | G11 activation, agonist character in words [2] | G15 activation, agonist character in words [3] | Gq activation, agonist character in words [4] | G13 activation, agonist character in words [5] | G12 activation, agonist character in words [6] | G12 activation, agonist character in words [7] | G13 activation, agonist character in words [8] | G14 activation, agonist character in words [9] | Gq activation, efficacy ([4]; rGFP-CAAX) | G13 activation, efficacy ([5]; normalized to I-BOP response) | G13 activation, efficacy ([8]; normalized to I-BOP response) | agonist properties (Gz activation), in words (D2R) | agonist properties (Gz activation), in words (D3R) | pEC50 (D3R; HEK293, Rap1GAP (SSS-AAA)-RlucII, rGFP-CAAX, Gz) | pEC50 [1] | agonist properties (Gz activation), in words (D1R) | agonist properties (Gz activation), in words (D5R) |
| --- | --- | --- | --- | --- | --- | --- | --- | --- | --- | --- | --- | --- | --- | --- | --- | --- | --- |
| CCCCC[C@H](O)/C=C/[C@H]1CC2CC(C2)[C@@H]1C/C=C\CCCC(=O)O [CTA2] | full agonists | full agonists | full agonists | full agonists | full agonists | full agonists | full agonists | full agonists | – | – | – | – | – | – | – | – | – |
| CC1(C)[C@@H]2C[C@H](NS(=O)(=O)c3ccc(I)cc3)[C@@H](C/C=C\CCCC(=O)O)[C@H]1C2 [I-SAP] | fail to induce significant activation | fail to induce significant activation | fail to induce significant activation | – | fails to induce significant G12 activation | neutral | – | fail to induce significant activation | 7 % of I-BOP max response | 19 % of Max | 53 % of Max | – | – | – | – | – | – |
